From PMC12816392, “Salmonella relies on siderophore exploitation at low pH” (microLife, 2026)

Target: FoxA (Salmonella enterica, UniProt E1W8M5)
Assay: […]-DFOE radioligand binding to whole Salmonella cells expressing FoxA, at […]-4 °C with CCCP, filtration and scintillation counting; pH […] and […]
Type: cell-based

FoxA, sequence (E1W8M5 31-702): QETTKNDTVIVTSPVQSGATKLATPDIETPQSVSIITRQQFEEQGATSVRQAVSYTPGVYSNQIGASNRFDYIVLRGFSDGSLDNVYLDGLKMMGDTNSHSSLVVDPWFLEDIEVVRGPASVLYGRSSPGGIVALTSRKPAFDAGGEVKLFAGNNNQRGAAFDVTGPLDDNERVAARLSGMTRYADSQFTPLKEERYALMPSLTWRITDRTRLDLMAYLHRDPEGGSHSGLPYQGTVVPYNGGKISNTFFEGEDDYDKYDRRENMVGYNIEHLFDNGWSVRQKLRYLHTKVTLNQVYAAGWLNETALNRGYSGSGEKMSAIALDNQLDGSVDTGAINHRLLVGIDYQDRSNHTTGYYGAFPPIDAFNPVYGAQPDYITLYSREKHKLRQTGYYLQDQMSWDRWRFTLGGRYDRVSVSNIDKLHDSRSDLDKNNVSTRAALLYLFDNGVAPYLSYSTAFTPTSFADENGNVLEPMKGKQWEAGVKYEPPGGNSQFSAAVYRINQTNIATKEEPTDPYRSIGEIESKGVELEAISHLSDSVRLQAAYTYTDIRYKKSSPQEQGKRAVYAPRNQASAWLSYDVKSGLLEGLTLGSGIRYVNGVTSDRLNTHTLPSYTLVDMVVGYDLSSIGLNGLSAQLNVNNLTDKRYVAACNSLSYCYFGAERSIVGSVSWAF

**Q.** Which Kd does the source give for `O=C1CCC(=O)N(O)CCCCCNC(=O)CCC(=O)N(O)CCCCCNC(=O)CCC(=O)N(O)CCCCCN1` [DFOE, ferrioxamine E] here?
**A.** ~3.2 nM
